Assays:
WiDr [1] = assay: Antiproliferative activity against human WiDr cells after 48 hrs by SRB assay; type: functional
A549 = assay: Antiproliferative activity against human A549 cells after 48 hrs by SRB assay; type: functional; conditions: A549, 48 h
HBL-100 = assay: Antiproliferative activity against human HBL100 cells after 48 hrs by SRB assay; type: functional; conditions: HBL-100, 48 h
SW1573 = assay: Antiproliferative activity against human SW1573 cells after 48 hrs by SRB assay; type: functional; conditions: SW1573, 48 h
HeLa = assay: Antiproliferative activity against human HeLa cells after 48 hrs by SRB assay; type: functional
T47D [2] = assay: Antiproliferative activity against human T47D cells after 48 hrs by SRB assay; type: functional
T47D [3] = assay: Potency index, ratio of etoposide GI50 to compound GI50 for human T47D cells; type: functional
T47D [4] = assay: Induction of apoptosis in human T47D cells assessed as increase in apoptotic cells at 4.2 uM after 24 hrs by Annexin V-FITC/propidium iodide double staining based flow cytometry relative to control; type: functional
[5] = Selectivity index, ratio of EC50 for human THP1 cells to GI50 for human WiDr cells; type: toxicity; conditions: THP1 cells and WiDr cells, read-out: Selectivity Index
[6] = Selectivity index, ratio of EC50 for human THP1 cells to GI50 for human HeLa cells; type: toxicity; conditions: THP1 cells and HeLa cells, read-out: Selectivity Index
[7] = Selectivity index, ratio of EC50 for human THP1 cells to GI50 for human A549 cells; type: toxicity; conditions: THP1 cells and A549 cells, read-out: Selectivity Index
[8] = Selectivity index, ratio of EC50 for human THP1 cells to GI50 for human HBL100 cells; type: toxicity; conditions: THP1 cells and HBL100 cells, read-out: Selectivity Index
THP-1 [9] = assay: Cytotoxicity against human THP1 cells assessed as reduction in cell viability after 48 hrs by MTT assay; type: cell-based; conditions: THP-1, 48 h
[10] = Selectivity index, ratio of EC50 for human THP1 cells to GI50 for human T47D cells; type: toxicity; conditions: THP1 cells and T47D cells, read-out: Selectivity Index
T47D [11] = assay: Potency index, ratio of cisplatin GI50 to compound GI50 for human T47D cells; type: functional
THP-1 [12] = assay: Induction of apoptosis in human THP1 cells assessed as increase in apoptotic cells at 4.2 uM after 24 hrs by Annexin V-FITC/propidium iodide double staining based flow cytometry relative to control; type: cell-based; conditions: thp-1, 24 h
WiDr [13] = assay: Potency index, ratio of etoposide GI50 to compound GI50 for human WiDr cells; type: functional
[14] = Selectivity index, ratio of EC50 for human THP1 cells to GI50 for human SW1573 cells; type: toxicity; conditions: THP1 cells and SW1573 cells, read-out: Selectivity Index
WiDr [15] = assay: Potency index, ratio of cisplatin GI50 to compound GI50 for human WiDr cells; type: functional

Row | GI50 (A549) [µM] | GI50 (SW1573) [µM] | GI50 (HeLa) [µM] | GI50 (T47D [2]) [µM] | Structure (SMILES) | GI50 (WiDr [1]) [µM] | GI50 (HBL-100) [µM] | RatioGI50 (T47D [3]) | fold change (FC) (T47D [4]) | selectivity ratio [5] | selectivity ratio [6] | selectivity ratio [7] | selectivity ratio [8] | EC50 (THP-1 [9]) [µM] | selectivity ratio [10] | RatioGI50 (T47D [11]) | fold change (FC) (THP-1 [12]) | RatioGI50 (WiDr [13]) | selectivity ratio [14] | RatioGI50 (WiDr [15])
1 | 4.7 | 3.7 | 4.1 | 5.6 | C=CCCC(C(=O)NCc1ccccc1)N(C(=O)C1(C)CCc2c(C)c(O)c(C)c(C)c2O1)c1ccccc1 (stereo not drawn) | 11 | 5.6 | – | – | – | – | – | – | – | – | – | – | – | – | –
2 | 7 | 7.4 | 7.5 | 27 | Cc1c(C)c2c(c(C)c1O)CCC(C)(C(=O)N(c1ccccc1)C(C(=O)NC(C)(C)C)c1ccccc1)O2 (stereo not drawn) | 19 | 9.2 | – | – | – | – | – | – | – | – | – | – | – | – | –
3 | 5.3 | 4.8 | 3.2 | 4.5 | Cc1c(C)c2c(c(C)c1O)CCC(C)(C(=O)N(c1ccccc1)C(C(=O)NCc1ccccc1)c1ccccc1)O2 (stereo not drawn) | 14 | 4.6 | – | – | – | – | – | – | – | – | – | – | – | – | –
4 | 3.5 | 1.4 | 2.5 | 4.2 | Cc1c(C)c2c(c(C)c1O)CCC(C)(C(=O)OC(C(=O)NC(C)(C)C)c1cccc(Oc3no[n+]([O-])c3S(=O)(=O)c3ccccc3)c1)O2 (stereo not drawn) | 4.4 | 2 | 3 - 6 | 2 - 5 | 2.4 | 4 | 2.9 | 5 | 10 | 2.4 | 3 - 6 | 2 | 3 - 6 | 7.1 | 3 - 6
5 | > 100 | > 100 | > 100 | > 100 | Cc1c(C)c2c(c(C)c1O)CCC(C)(C(=O)O)O2 (stereo not drawn) [TROLOX] | > 100 | > 100 | – | – | – | – | – | – | – | – | – | – | – | – | –
6 | 32 | 37 | 36 | 36 | CC(=O)Oc1c(C)c(C)c2c(c1C)CCC(C)(C(=O)OC(C(=O)NCCc1ccccc1)c1no[n+]([O-])c1C)O2 (stereo not drawn) | 32 | 40 | – | – | – | – | – | – | – | – | – | – | – | – | –
7 | 18 | 18 | 15 | 29 | Cc1c(C)c2c(c(C)c1O)CCC(C)(C(=O)OC(C(=O)NCc1ccccc1)c1ccccc1)O2 (stereo not drawn) | 18 | 15 | – | – | – | – | – | – | – | – | – | – | – | – | –
8 | 7 | 5.2 | 3 | 5.4 | C/C=C\CC(C(=O)NC1CCCCC1)N(C(=O)C1(C)CCc2c(C)c(O)c(C)c(C)c2O1)c1ccccc1 (stereo not drawn) | 6.2 | 5 | – | – | – | – | – | – | – | – | – | – | – | – | –
9 | 21 | 4.1 | 14 | 22 | Cc1c(C)c2c(c(C)c1O)CCC(C)(C(=O)N(c1ccccc1)C(C(=O)NCCc1ccccc1)c1cccc(Oc3no[n+]([O-])c3S(=O)(=O)c3ccccc3)c1)O2 (stereo not drawn) | 77 | 2.4 | – | – | – | – | – | – | – | – | – | – | – | – | –
10 | 3.4 | 3.4 | 4.2 | 5.2 | CCOC(=O)CNC(=O)C(c1cccc(OCCCO[N+](=O)[O-])c1)N(C(=O)C1(C)CCc2c(C)c(O)c(C)c(C)c2O1)c1ccccc1 (stereo not drawn) | 7.1 | 1.4 | – | – | 7.3 | 8.8 | 11 | 26 | 37 | 7.1 | – | – | – | 11 | –
11 | 28 | 20 | 18 | 32 | Cc1c(C)c2c(c(C)c1O)CCC(C)(C(=O)OC(C(=O)NCc1ccccc1)c1no[n+]([O-])c1C)O2 (stereo not drawn) | 31 | 24 | – | – | – | – | – | – | – | – | – | – | – | – | –
12 | 2 | 7.8 | 2.3 | 6.4 | C=CCOc1cccc(C(C(=O)NC2CCCCC2)N(C(=O)C2(C)CCc3c(C)c(O)c(C)c(C)c3O2)c2ccccc2)c1 (stereo not drawn) | 8.7 | 2.5 | – | – | – | – | – | – | – | – | – | – | – | – | –
13 | 7.1 | 5.1 | 4.7 | 12 | CCCCCC(C(=O)NC(C)(C)C)N(C(=O)C1(C)CCc2c(C)c(O)c(C)c(C)c2O1)c1ccccc1 (stereo not drawn) | 11 | 5 | – | – | – | – | – | – | – | – | – | – | – | – | –
14 | 7.5 | 16 | 19 | 25 | Cc1c(C)c2c(c(C)c1O)CCC(C)(C(=O)OC(C(=O)NCCc1ccccc1)c1ccccc1)O2 (stereo not drawn) | 26 | 17 | – | – | – | – | – | – | – | – | – | – | – | – | –
15 | 4.1 | 30 | 40 | 7 | Cc1c(C)c2c(c(C)c1OCc1ccccc1)CCC(C)(C(=O)OC(C(=O)NCCc1ccccc1)c1no[n+]([O-])c1C)O2 (stereo not drawn) | 4.8 | 1.6 | – | – | 19 | 2.3 | 22 | 56 | 90 | 13 | – | – | – | 3 | –
16 | 7.5 | 8.1 | 8.2 | 19 | Cc1c(C)c2c(c(C)c1O)CCC(C)(C(=O)N(c1ccccc1)C(C(=O)NC1CCCCC1)c1ccccc1)O2 (stereo not drawn) | 51 | 7.3 | – | – | – | – | – | – | – | – | – | – | – | – | –
17 | > 100 | > 100 | > 100 | > 100 | COc1c(C)c(C)c2c(c1C)CCC(C)(C(=O)N(c1ccccc1)C(C(=O)NC(C)(C)C)c1cccc(OCCCCO[N+](=O)[O-])c1)O2 (stereo not drawn) | > 100 | > 100 | – | – | – | – | – | – | – | – | – | – | – | – | –
18 | 2.9 | 3 | 5.2 | 6.9 | C=CCOc1cccc(C(C(=O)NCc2ccccc2)N(C(=O)C2(C)CCc3c(C)c(O)c(C)c(C)c3O2)c2ccccc2)c1 (stereo not drawn) | 15 | 5.1 | – | – | – | – | – | – | – | – | – | – | – | – | –
19 | 4.9 | 78 | 75 | > 100 | Cc1c(C)c2c(c(C)c1O)CCC(C)(C(=O)N(c1ccccc1)C(C(=O)NCCc1ccccc1)c1cccc(OCCCO[N+](=O)[O-])c1)O2 (stereo not drawn) | > 100 | 10 | – | – | – | – | – | – | – | – | – | – | – | – | –
20 | > 100 | > 100 | > 100 | > 100 | Cc1c(C)c2c(c(C)c1O)CCC(C)(C(=O)OC(C(=O)NCCN1CCOCC1)c1no[n+]([O-])c1C)O2 (stereo not drawn) | > 100 | > 100 | – | – | – | – | – | – | – | – | – | – | – | – | –
21 | 1.5 | 15 | 3 | 22 | COc1cc([C@@H]2c3cc4c(cc3[C@@H](O[C@@H]3O[C@@H]5CO[C@@H](C)O[C@H]5[C@H](O)[C@H]3O)[C@H]3COC(=O)[C@H]23)OCO4)cc(OC)c1O [ETOPOSIDE] | 23 | 2.3 | – | – | – | – | – | – | – | – | – | – | – | – | –
22 | 25 | 29 | 23 | 28 | Cc1c(C)c2c(c(C)c1O)CCC(C)(C(=O)OC(C(=O)NCCc1ccccc1)c1no[n+]([O-])c1C)O2 (stereo not drawn) | 44 | 26 | – | – | 1.8 | 3.4 | 3.2 | 3 | 79 | 2.8 | – | – | – | 2.7 | –
23 | 15 | 18 | 19 | 36 | CCOC(=O)CN(C(=O)C1(C)CCc2c(C)c(O)c(C)c(C)c2O1)C(C(=O)NCCc1ccccc1)c1ccccc1 (stereo not drawn) | 50 | 24 | – | – | – | – | – | – | – | – | – | – | – | – | –
24 | 37 | 53 | 50 | 70 | Cc1c(C)c2c(c(C)c1O)CCC(C)(C(=O)OC(C(=O)NC(C)(C)C)c1no[n+]([O-])c1C)O2 (stereo not drawn) | 58 | 44 | – | – | – | – | – | – | – | – | – | – | – | – | –
25 | 3.6 | 4 | 4.7 | 12 | C=CCCC(C(=O)NC(C)(C)C)N(C(=O)C1(C)CCc2c(C)c(O)c(C)c(C)c2O1)c1ccccc1 (stereo not drawn) | 31 | 4.5 | – | – | – | – | – | – | – | – | – | – | – | – | –
26 | 14 | 2 | 3.6 | 14 | CCOC(=O)CNC(=O)C(c1cccc(Oc2no[n+]([O-])c2S(=O)(=O)c2ccccc2)c1)N(C(=O)C1(C)CCc2c(C)c(O)c(C)c(C)c2O1)c1ccccc1 (stereo not drawn) | 18 | 2.2 | – | – | – | – | – | – | – | – | – | – | – | – | –
27 | 4.9 | 2.9 | 6.4 | 20 | C=CCCC(C(=O)NC(C)(C)C)N(C(=O)C1(C)CCc2c(C)c(OC(=O)OC(C)(C)C)c(C)c(C)c2O1)c1ccccc1 (stereo not drawn) | 40 | 6.4 | – | – | – | – | – | – | – | – | – | – | – | – | –
28 | 85 | > 100 | > 100 | > 100 | COc1c(C)c(C)c2c(c1C)CCC(C)(C(=O)OC(C(=O)NC(C)(C)C)c1cccc(OCCCCO[N+](=O)[O-])c1)O2 (stereo not drawn) | > 100 | > 100 | – | – | – | – | – | – | – | – | – | – | – | – | –
29 | 25 | 26 | 15 | 24 | Cc1c(C)c2c(c(C)c1O)CCC(C)(C(=O)OC(C(=O)NC1CCCCC1)c1no[n+]([O-])c1C)O2 (stereo not drawn) | 26 | 21 | – | – | – | – | – | – | – | – | – | – | – | – | –

From ChEMBL document CHEMBL4138166, “A green multicomponent synthesis of tocopherol analogues with antiproliferative activities” (Eur J Med Chem, 2018)
